{"source": "patent US20250197248A1", "about": "“WATER TREATMENT SYSTEM” (KEMIRA OYJ, priority 2022, published 2025)", "key": {"[1]": {"assay": "Residual PFA over time in dosed wastewater samples (CHEMetrics test kit)", "type": "physicochemical", "settings": "doses 0.5, 1 and 2 ppm; S2 samples versus S1 samples; FIG. 5", "procedure": "Varying doses of PFA (0.5 ppm, 1 ppm, and 2 ppm) were dosed into S1 and S2 wastewater samples as described in Example 1. Residual levels of PFA were measured using a CHEMetrics test kit for PAA with vacuum ampules detecting in the 0-5 ppm range (Maffettone, 2020). PFA values were obtained by multiplying the PAA results by 0.82 (Maffettone, 2020). The factor of 0.82 for conversion of PAA to PFA corresponds to the molecular weight ratio of PFA (62.02 g/mol) to PAA (76.05 g/mol). Due to the fast degradation of PFA, residual PFA concentrations were determined immediately following the sample collection."}, "fecal coliform": {"tested_on": "fecal coliform", "assay": "Disinfection efficacy of PFA in wastewater samples, colony count (USEPA method 10029)", "type": "cell-based", "settings": "S2 (50% secondary + 50% primary-only wastewater, 30 min contact) versus S1 (secondary-treated wastewater, 90 min contact); FIG. 4A", "procedure": "(§1) The disinfection efficacy of PFA against fecal coliform and E. coli was assessed in wastewater (WW) that had undergone secondary treatment (S1), and in a mixed wastewater sample comprising 50% wastewater that had undergone secondary treatment and 50% wastewater that had undergone primary treatment without secondary treatment (S2). The S2 sample would have inevitably contained higher levels of TSS, increased organic matter and increased microbial content.\n(§2) WW samples were collected and stored at 4° C. […] until use (within 1 to 3 days). A PFA solution was prepared immediately prior to use by mixing 2.5 mL of 35% hydrogen peroxide with 2.5 mL of DEX®-A375 (a mixture of formic and sulfuric acids). The resultant mixture was incubated for 5 minutes at 4° C. and subsequently for 25 minutes at room temperature to complete formation of the 9.5% PFA solution. The 9.5% PFA solution was diluted to 950 mg/L by adding 0.2 mL of the 9.5% PFA solution to 19.8 mL distilled water.\n(§3) WW samples were dosed with PFA to determine efficacy after set contact times. A shorter 30 minute contact time was used for the S2 samples to emulate the shorter contact times that would occur in a CSO event when the volume and rate of flow of water through the WW treatment system is increased. […] After incubation, the number of colonies was counted. […]"}, "E. coli": {"tested_on": "E. coli", "assay": "Disinfection efficacy of PFA in wastewater samples, colony count (USEPA method 10029)", "type": "cell-based", "settings": "S2 (50% secondary + 50% primary-only wastewater, 30 min contact) versus S1 (secondary-treated wastewater, 90 min contact); FIG. 4B", "procedure": "as §1, §2, §3"}}, "data": [{"smiles": "O=COO", "note": "[PFA, performic acid]", "values": [{"measurement": "residual PFA levels over time (degradation in wastewater)", "setting": "[1]", "value": "decrease more rapidly over time in S2 samples than in S1 samples"}, {"measurement": "disinfection efficacy against fecal coliform", "setting": "fecal coliform", "value": "significantly reduced"}, {"measurement": "disinfection efficacy against E. coli", "setting": "E. coli", "value": "significantly reduced"}]}]}
